Where two headings read alike, the source gives them in different places.
Key:
[1] = Evaluation of pharmacokinetics in mice; settings: male, ICR (CD1), mouse, plasma, po, 10 mg/kg
Description: Test Objective: The pharmacokinetics of the example compounds of the present application were tested in mice. By measuring the drug concentration in mouse plasma, the pharmacokinetic behavior of the compounds of the present invention was studied to evaluate their pharmacokinetic characteristics.
Test Animals: 6-8 Week Old Male ICR (CD1) Mice
Oral Gavage Drug Preparation: An appropriate amount of the test compound was first weighed and dissolved in DMSO (Macklin cas: 67-68-5) to prepare a 20 mg/mL solution. Then, 75 μL of this solution was added to 150 μL of Solutol (Sigma cas: 70142-34-6), followed by 1.275 mL of 20% Captisol (Selleck cas: 182410-00-0), resulting in a final drug concentration of 1 mg/mL.
Intravenous Injection Drug Preparation: An appropriate amount of the test compound was first weighed and dissolved in DMSO (Macklin cas: 67-68-5) to prepare a 30 mg/mL solution. Then, 15 μL of this solution was added to 150 μL of Solutol (Sigma cas: 70142-34-6), followed by 1.335 mL of 20% Captisol (Selleck cas: 182410-00-0), resulting in a final drug concentration of 0.3 mg/mL.
Procedures: The mice were fasted overnight with free access to water before the experiment. Food was restored two hours after dosing. Blood samples were collected at different time points after intravenous injection or oral gavage of the test compound in mice, and the compound concentration in plasma was measured. Approximately 50 μL of blood was collected from each animal using a capillary sampling tube via the orbital venous plexus, with heparin sodium as an anticoagulant. Blood samples were placed on ice, centrifuged at 3500 r/min for 10 minutes to separate the plasma, and 20 μL of the collected plasma was added to 200 μL of acetonitrile (Merck cas: 75-05-8) containing 200 nM dexamethasone (Selleck cas: 50-02-2) as an internal standard. The mixture was centrifuged at 8000 r/min for 20 minutes. After centrifugation, 150 μL of the supernatant was transferred to a new centrifuge tube, and 150 μL of 0.1% formic acid (Fisher cas: 207868) was added. The mixture was mixed well, and 5 μL of the sample was subjected to quantitative analysis by liquid chromatography-mass spectrometry (Q-TOF LC/MS).
The test compound was serially diluted with DMSO to cover the compound concentrations expected in plasma samples to be tested, with a blank sample (containing only DMSO) included.
2 μL of each diluted sample at various concentrations was added to 18 μL of normal ICR mouse plasma, mixed, and then added to 200 μL of acetonitrile (Merck cas: 75-05-8) containing 200 nM dexamethasone (Selleck cas: 50-02-2) as an internal standard. The mixture was centrifuged for 20 minutes (8000 r/min). 150 μL of the supernatant was transferred to a new centrifuge tube, and 150 μL of 0.1% formic acid (Fisher cas: 207868) was added. The mixture was mixed well, and 5 μL of the sample was subjected to quantitative analysis by liquid chromatography-mass spectrometry (Q-TOF LC/MS).
The final standard curve was plotted using the concentration of the test compound after dilution on the abscissa and the ratio of the signal of the compound to the internal standard (dexamethasone) on the ordinate. The standard curve was generated using linear regression with GraphPad Prism 8 software (R2>0.9900).
Data Analysis: calculation of pharmacokinetic parameters: the concentration of the test compound in plasma at different time points after intravenous injection or oral gavage in ICR mice was determined based on the above standard curve, and pharmacokinetic parameters (T1/2, Cmax, AUC, etc.) were calculated using the Phoenix WinNonlin 8.1 non-compartmental analysis model.

[2] = Liver microsome metabolism assay; settings: CD1, mouse, liver microsomes
Description: Experimental Materials: Mixed CD1 mouse liver microsomal enzyme protein was purchased from Xenotech (#M1000), and NADPH was purchased from Abmole (#M9076).
1. To the liver microsomal enzyme reaction system, 210 μL of phosphate buffer was added, followed by 12.5 μL of liver microsomal enzyme at a concentration of 20 mg/mL. Then, 25 μL of NADPH at a concentration of 10 mM was added to the system, mixed well, and incubated in a 37° C. water bath with shaking for 10 minutes.
2. The test compound, stored at a concentration of 10 mM, was diluted to 100 μM with DMSO. Then, 2.5 μL of the diluted test compound was added to the reaction system, mixed well, and incubated in a 37° C. water bath with shaking.
3. At 0.5, 5, 10, 20, 30, and 60 minutes, 25 μL of the enzyme reaction mixture was taken and added to 125 μL of cold acetonitrile containing dexamethasone as an internal standard. The mixture was centrifuged at 4000 g for 20 minutes, and the supernatant was mixed with an equal volume of distilled water. The mixed sample was then subjected to quantitative analysis by liquid chromatography-mass spectrometry.
4. Calculation of in vitro drug metabolism half-life and drug clearance rate:
t1/2=−0.693/k. (k: the slope of the linear regression of the natural logarithm of the percentage of drug remaining versus incubation time).

[3] = Evaluation of pharmacokinetics in rats; assay type: in vivo; settings: male, SD, rat, plasma, 1 mg/kg, oral gavage (PO, 1 mpk)
From the text: Test Animals: 6-8 Week Old Male SD Rats
Food was restored two hours after dosing.

[4] = target: T1, PARP1 (Homo sapiens (Human), UniProt P09874); experiment: PARP enzyme activity assay (PARP1 chemiluminescent assay kit); assay type: biochemical; settings: enzyme inhibitory activity, read-out: PARP-1 IC50
T1 sequence (P09874 whole entry): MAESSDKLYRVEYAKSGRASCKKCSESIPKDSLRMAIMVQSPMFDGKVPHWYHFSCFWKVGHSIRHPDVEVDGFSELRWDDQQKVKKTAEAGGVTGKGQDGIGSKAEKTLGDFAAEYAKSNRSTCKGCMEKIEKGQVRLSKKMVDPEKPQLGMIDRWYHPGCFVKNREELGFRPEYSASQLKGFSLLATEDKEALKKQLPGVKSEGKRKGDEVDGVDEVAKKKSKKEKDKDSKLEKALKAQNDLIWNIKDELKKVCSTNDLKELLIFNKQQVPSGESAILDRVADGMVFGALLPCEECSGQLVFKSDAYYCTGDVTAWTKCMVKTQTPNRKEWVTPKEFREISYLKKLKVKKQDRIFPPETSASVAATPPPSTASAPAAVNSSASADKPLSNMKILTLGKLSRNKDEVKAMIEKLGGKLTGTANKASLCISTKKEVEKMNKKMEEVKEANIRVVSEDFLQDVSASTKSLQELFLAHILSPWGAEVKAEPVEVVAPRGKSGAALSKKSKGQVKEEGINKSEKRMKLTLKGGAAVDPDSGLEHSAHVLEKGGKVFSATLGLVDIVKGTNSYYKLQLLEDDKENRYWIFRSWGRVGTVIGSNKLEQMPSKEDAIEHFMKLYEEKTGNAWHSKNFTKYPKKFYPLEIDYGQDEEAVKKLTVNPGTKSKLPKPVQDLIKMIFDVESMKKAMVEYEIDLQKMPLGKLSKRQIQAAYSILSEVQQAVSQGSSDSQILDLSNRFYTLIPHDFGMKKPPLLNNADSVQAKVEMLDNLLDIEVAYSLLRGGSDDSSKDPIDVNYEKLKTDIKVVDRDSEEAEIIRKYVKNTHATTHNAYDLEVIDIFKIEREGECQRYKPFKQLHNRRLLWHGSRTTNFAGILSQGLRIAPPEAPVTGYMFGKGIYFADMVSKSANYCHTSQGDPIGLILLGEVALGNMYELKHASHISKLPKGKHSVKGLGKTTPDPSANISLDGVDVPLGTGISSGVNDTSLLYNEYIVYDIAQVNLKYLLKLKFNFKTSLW
From the text: Experimental Materials: The PARP1 assay kit was purchased from BPS Bioscience, USA, specifically the 384-well chemiluminescent assay kit (Catalog No.: #80551).
Experimental Principle: PARP can catalyze the transfer of ADP-ribose residues from NAD+ to target substrates, thereby modifying proteins through ribosylation. This experiment measures PARP1 enzyme activity by detecting the poly(ADP-ribosylation) of histones by PARP1.
Preparation of Reagents and Test Compounds: The 10× assay buffer included in the kit was diluted to 1× with distilled water. The test compound (stock concentration of 10 mM) was diluted to 10 μM with a DMSO solution and then serially diluted in a 1:3 ratio. The serially diluted compounds were further diluted 10-fold with the 1× assay buffer.
Experimental Method: The procedure was carried out according to the kit's instructions:
1. The 5× histone mixture was diluted to 1× with PBS, and 25 μL was added to each well of a 384-well plate, incubating overnight at 4° C.
2. After incubation, 100 μL of PBST (0.05% Tween 20) was added to each well for washing, repeated three times. Then, 100 μL of blocking solution was added to each well and incubated at room temperature for 90 minutes.
3. After incubation, the wells were washed three times with PBST, and then 1.25 μL of 10× assay buffer, 1.25 μL of 10×PARP assay mixture, 2.5 μL of activation DNA (5×), and 7.5 μL of distilled water were added to each well.
4. […] The positive control group and the negative control group were added with 1× assay buffer containing the same concentration of DMSO.
5. Next, 10 μL of 2.5 ng/μL PARP1 enzyme was added to the test compound and positive control groups, while 10 μL of 1× assay buffer was added to the negative control group, and the mixture was incubated at room temperature for 60 minutes.
6. Streptavidin-HRP was diluted 1:50 with the blocking solution. After incubation, the plate was washed three times with PBST, and 25 μL of the diluted streptavidin-HRP solution was added to each well, incubating at room temperature for 30 minutes.
7. After incubation, the plate was washed three times with PBST, and 50 μL of the mixed substrate A and substrate B in equal volumes was added. The luminescence signal was immediately read on a Synergy HTX multi-mode reader.
(§1) 8. Data analysis was performed using GraphPad Prism 8.0 software. The inhibition rate %=100*(average luminescence signal of the positive control group−luminescence signal of the compound)/(average luminescence signal of the positive control group−average luminescence signal of the negative control group). The IC50 value was obtained by plotting the logarithm of the compound concentration against the percentage inhibition rate.

[5] = tested on: MDA-MB-436 breast cancer cells; experiment: Cell proliferation assay, MDA-MB-436; assay type: cell-based; settings: Homo sapiens, MDA-MB-436, 168 h, read-out: MDA-MB-436 Cell IC50
Description: (§2) Experimental Materials: MDA-MB-436 or UWB1.289 cell lines were purchased from Cobioer Biosciences Co. Ltd. (Nanjing, China). The STR identification results were a complete match, and mycoplasma testing was negative. MDA-MB-436 cells were cultured in DMEM complete medium containing 10% fetal bovine serum, 1% penicillin-streptomycin, 1% insulin, and 16 μg/mL glutathione; UWB1.289 cells were cultured in RMPI1640 complete medium containing 10% fetal bovine serum and 1% penicillin-streptomycin.
(§3) 1. MDA-MB-436 or UWB1.289 cells were cultured in the aforementioned medium (culture conditions: 37° C., 5.0% CO2 in air) until they reached the logarithmic growth phase. The cells were then digested with trypsin containing 0.25% EDTA, centrifuged at 1000 rpm, and the supernatant was discarded. Cell culture medium was added, and the cell suspension was adjusted to 2×10^4/mL after counting. 135 μL of the cell suspension per well was taken and cultured in a 96-well cell culture plate for 16 hours (culture conditions: 37° C., 5.0% CO2 in air).
(§4) 2. The test compounds, stored at a concentration of 10 mM, were diluted 2.5 times with DMSO and then serially diluted in a 1:3 gradient (9 gradients). The gradient-diluted samples were further diluted 40 times with serum-free medium, and 15 μL of each was added to the 96-well cell culture plate. The positive control group received serum-free medium containing the same concentration of DMSO, and the negative control group received medium without cells. The cells were then cultured for an additional 7 days.
(§5) 3. After the culture period, the cell culture plate was placed at room temperature for 30 minutes. Then, 100 μL of CellCounting-Lite 2.0 reagent (Vazyme, #DD1101) was added to each well, mixed thoroughly, and incubated in the dark at room temperature for 10 minutes. The luminescence signal was read using a Synergy HTX multi-mode reader.
as §1, with “4. Data” for “8. Data”, “rate (%) was calculated as 100*(average” for “rate %=100*(average”

[6] = target: T1, PARP1; experiment: PARP1 trapping assay; assay type: biochemical; settings: read-out: Inhibitory Effect on PARP1 Trapping IC50
Description: [table] […] 1. A 4× enzyme reaction mixture, comprising PARP1, PARP2, and GST-Tb antibody, was prepared with the buffer and 4 μL of the enzyme reaction mixture was added to a 384-well plate. 2. A 4×PARP1 and PARP2 probe reaction mixture was prepared with the buffer and 4 μL of the probe reaction mixture was added to the 384-well plate. 3. A series of gradient-diluted compounds were prepared and 4 μL of the diluted compounds were added to the 384-well plate, and incubated at room temperature for 45 minutes. 4. After incubation, 4 μL of 4×NAD reaction mixture was added to the 384-well plate and incubated at room temperature for 10 minutes. 5. After incubation, the plate was read using a plate reader. 6. Data Analysis: The percentage inhibition rate was calculated as follows: Inhibition Rate (%)=(Reading of Compound Group−Reading of Blank Group)/(Reading of Vehicle Control Group−Reading of Blank Group).

[7] = tested on: UWB1.289 ovarian cancer cells; experiment: Cell proliferation assay, UWB1.289; assay type: cell-based; settings: UWB1289, 168 h, read-out: UWB1.289 Cell IC50
Description: as §2, §3, §4, §5
as §1, with “4. Data” for “8. Data”, “rate (%) was calculated as 100*(average” for “rate %=100*(average”

Structure (SMILES)	AUC(0-inf) [1] [µg·h/mL]	Cmax [1] [ng/mL]	half-life [1] [min]	microsomal CLint at 1 µM [2] [µL/min/mg]	IC50 ([5]; proliferation, 7 days) [nM]	IC50 [6] [nM]	further results
CCc1cc2ncc(CN3CCN(c4ccc(C(=O)NC)nc4)CC3)cc2[nH]c1=O [AZD5305, reference compound]	357	37300	495	1.23	–	–	AUC(0-inf) [3]: 5600 ng·h/mL; Cmax [3]: 1400 ng/mL; half-life [3]: 245 min
Cc1c(C(F)(F)F)c(=O)[nH]c2cc(CN3CCN(c4cc5c(cn4)C(=O)NC5)CC3)cnc12 [Compound 15, 4-methyl-7-((4-(3-oxo-2,3-dihydro-1H-pyrrolo[3,4-c]pyridin-6-yl)piperazin-1-yl)methyl)-3-(trifluoromethyl)-1,5-naphthyridin-2(1H)-one]	–	–	–	0.75	–	–	IC50 [4]: 3.48 nM
CNC(=O)c1ccc(N2CCN(Cc3cnc4c(C)c(C(F)(F)F)c(=O)[nH]c4c3)CC2C#N)cn1 (stereo not shown) [Compound 72, 5-(2-cyano-4-((8-methyl-6-oxo-7-(trifluoromethyl)-5,6-dihydro-1,5-naphthyridin-3-yl)methyl)piperazin-1-yl)-N-methylpicolinamide]	–	–	–	0.6	8.18	–	–
Cc1c(C(F)(F)F)c(=O)[nH]c2cc(CN3CCN(c4cc5c(cn4)C(=O)N(C)C5)CC3)cnc12 [Compound 84, 4-methyl-7-((4-(2-methyl-3-oxo-2,3-dihydro-1H-pyrrolo[3,4-c]pyridin-6-yl)piperazin-1-yl)methyl)-3-(trifluoromethyl)-1,5-naphthyridin-2(1H)-one]	–	–	–	0.72	–	–	–
CNC(=O)c1ccc(N2CCN(Cc3cnc4c(C)c(C#N)c(=O)[nH]c4c3)CC2)cn1 [Compound 85, 5-(4-((7-cyano-8-methyl-6-oxo-5,6-dihydro-1,5-naphthyridin-3-yl)methyl)piperazin-1-yl)-N-methylpicolinamide]	–	–	–	0.86	16.4	–	–
CNC(=O)c1ccc(N2CCN(Cc3cc4[nH]c(=O)c(C(F)(F)F)c(C)c4cn3)C[C@H]2C)cn1 [Compound 88, (R)—N-methyl-5-(2-methyl-4-((4-methyl-2-oxo-3-(trifluoromethyl)-1,2-dihydro-1,6-naphthyridin-7-yl)methyl)piperazin-1-yl)picolinamide]	1650	38200	1580	0.84	5.75	1.55	–
CNC(=O)c1ccc(N2CCN(Cc3cnc4c(C)c(C(F)(F)F)c(=O)[nH]c4c3)CC2)c(F)n1 [Compound 93, 6-fluoro-N-methyl-5-(4-((8-methyl-6-oxo-7-(trifluoromethyl)-5,6-dihydro-1,5-naphthyridin-3-yl)methyl)piperazin-1-yl)picolinamide]	796	31900	1100	–	–	1.32	IC50 [5]: 0.83 nM; IC50 [7]: 2.67 nM

More lines, main results first:

AUC(0-inf) [1] [µg·h/mL]	Cmax [1] [ng/mL]	half-life [1] [min]	microsomal CLint at 1 µM [2] [µL/min/mg]	IC50 ([5]; proliferation, 7 days) [nM]	IC50 [6] [nM]	Structure (SMILES)	further results
1100	26300	1720	0.4	4.32	–	CNC(=O)c1ccc(N2CCN(C(C)c3cnc4c(C)c(C(F)(F)F)c(=O)[nH]c4c3)CC2)cn1 (stereo not shown) [Compound 24, N-methyl-5-(4-(1-(8-methyl-6-oxo-7-(trifluoromethyl)-5,6-dihydro-1,5-naphthyridin-3-yl)ethyl)piperazin-1-yl)picolinamide]	–
–	–	–	1.01	5.73	2.57	CNC(=O)c1ccc(N2CCN(Cc3cc4[nH]c(=O)c(C(F)(F)F)c(C)c4cn3)[C@H](C)C2)cn1 [Compound 87, (R)—N-methyl-5-(3-methyl-4-((4-methyl-2-oxo-3-(trifluoromethyl)-1,2-dihydro-1,6-naphthyridin-7-yl)methyl)piperazin-1-yl)picolinamide]	–
1360	49900	1210	0.21	7.26	4.33	CNC(=O)c1ccc(N2CCN([C@H](C)c3cnc4c(C)c(C(F)(F)F)c(=O)[nH]c4c3)CC2)cn1 [Compound 90, (R)—N-methyl-5-(4-(1-(8-methyl-6-oxo-7-(trifluoromethyl)-5,6-dihydro-1,5-naphthyridin-3-yl)ethyl)piperazin-1-yl)picolinamide]	–
–	–	–	0.3	3.24	2.9	CNC(=O)c1ccc(N2CCN([C@@H](C)c3cnc4c(C)c(C(F)(F)F)c(=O)[nH]c4c3)CC2)cn1 [Compound 91, (S)—N-methyl-5-(4-(1-(8-methyl-6-oxo-7-(trifluoromethyl)-5,6-dihydro-1,5-naphthyridin-3-yl)ethyl)piperazin-1-yl)picolinamide]	–

Source: patent publication US20250051324A1, “PARP INHIBITOR, PHARMACEUTICAL COMPOSITION COMPRISING SAME, AND USE THEREOF” (KEYTHERA (SUZHOU) BIO-PHARMACEUTICALS CO., LIMITED, priority 2021, published 2025)
